This note sets out measurements from article PMC7347136 (PLoS ONE, 2020).

The subject of one experiment is HL60. Nature of the experiment: Resazurin reduction cell viability assay. It counts as cell-based. The conditions noted are these: Homo sapiens. As for the experimental part:
(§1) Solid tumor cell lines were seeded in 100 μl medium into 96-well plates at an appropriate cell number determined by a cell dilution assay (Cal51–2000 cells/well; Colo205, MCF10A and 184A1–3000 cells/well and MDA-MB-468, HCC1954–4000 cells/well). AML suspension cells were seeded in 96-well plates at approximately 3000 cells per well. Cells were incubated overnight at 37°C, 5% CO2. The following day, 100 μl fresh medium containing increasing concentrations of appropriate compound was added and the cells were incubated for up to 72 h at 37°C, 5% CO2. For pulse treatment of solid (adherent) tumor cell lines, medium was aspirated and replaced with fresh drug-free medium. For pulse treatment of suspension lines, plates were centrifuged at 478 xg for 5 min at the end of the incubation period with compound, medium containing compound was carefully aspirated and replaced with fresh compound-free medium. A total of 72 h after the start of treatment, 20 μl of a 10X stock of resazurin sodium salt (Sigma-Aldrich, Dorset, UK) prepared in medium was added to the cells and incubated for up to 3 h. […] was measured on the Wallac Victor plate reader (Cambridge, UK) at 544–595 nm. IC50/70/90 calculations were determined in XLFit.
In general terms: The colour change of resazurin is a common sign of viable cells or microbes.

A further experiment deals with EOL-1. Briefly: Resazurin reduction cell viability assay. It counts as cell-based. The note with it: Homo sapiens. The protocol:
as §1

For experiment [1], the system named is all five cell lines (Cal51, MDA-MB-468, HCC1954, MCF10A, 184A1). Briefly: Standard 72 h viability assay, breast panel. It counts as cell-based. The conditions noted are these: Homo sapiens. As for the experimental part: as §1
In a further experiment the target is T1, CLK2 (Homo sapiens, UniProt P49760).
T1 construct: purchased Carna Biosciences
T1 sequence (P49760 whole entry): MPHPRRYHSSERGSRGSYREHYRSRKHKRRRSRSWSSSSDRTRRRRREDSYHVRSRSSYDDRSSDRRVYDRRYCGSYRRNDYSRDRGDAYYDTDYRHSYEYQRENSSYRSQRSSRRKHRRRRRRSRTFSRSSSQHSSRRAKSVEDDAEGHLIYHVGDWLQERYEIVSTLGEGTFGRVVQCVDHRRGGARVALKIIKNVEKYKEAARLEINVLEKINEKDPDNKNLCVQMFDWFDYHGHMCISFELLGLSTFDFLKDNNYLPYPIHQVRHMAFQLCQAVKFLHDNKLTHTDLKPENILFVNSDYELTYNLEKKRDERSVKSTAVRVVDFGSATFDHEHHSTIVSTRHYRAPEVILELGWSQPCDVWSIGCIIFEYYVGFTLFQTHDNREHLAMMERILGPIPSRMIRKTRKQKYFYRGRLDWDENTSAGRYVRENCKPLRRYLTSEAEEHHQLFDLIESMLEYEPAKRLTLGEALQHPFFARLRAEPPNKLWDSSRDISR
Briefly: Carna IC50 determination. The note with it: around Km [ATP]. It is filed as biochemical. As for the experimental part:
(§2) IC50 values were determined from a 10-point concentration curve using ATP concentrations approximating Km values. […] The percentage inhibition of each test solution was calculated, which allowed the IC50 value to be determined from concentration versus percentage inhibition curves by fitting to a four parameter logistic curve.

The next experiment deals with T2, CDK2/cyclin A (Homo sapiens, UniProt P24941).
T2 construct: purchased Carna Biosciences
Nature of the experiment: Carna IC50 determination. It counts as biochemical. The conditions noted are these: around Km [ATP]. The protocol:
as §2

The next experiment concerns the target T3, CLK1 (Homo sapiens, UniProt P49759).
T3 construct: purchased Carna Biosciences
Briefly: Carna IC50 determination. It is filed as biochemical. The note with it: around Km [ATP]. As for the experimental part:
as §2

The target of a further experiment is T4, CDK5/p25 (Homo sapiens, UniProt Q00535).
T4 construct: purchased Carna Biosciences
T4 sequence (Q00535 whole entry): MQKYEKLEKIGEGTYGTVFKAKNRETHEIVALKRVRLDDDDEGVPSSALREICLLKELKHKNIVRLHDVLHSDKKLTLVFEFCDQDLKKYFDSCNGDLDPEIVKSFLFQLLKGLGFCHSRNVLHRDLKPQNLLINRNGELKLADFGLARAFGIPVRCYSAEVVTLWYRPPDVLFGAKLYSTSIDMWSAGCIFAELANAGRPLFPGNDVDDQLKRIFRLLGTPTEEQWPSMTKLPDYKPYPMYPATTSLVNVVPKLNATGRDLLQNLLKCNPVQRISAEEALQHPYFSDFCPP
T4 sequence (Q15078 99-307 partner limits assumed): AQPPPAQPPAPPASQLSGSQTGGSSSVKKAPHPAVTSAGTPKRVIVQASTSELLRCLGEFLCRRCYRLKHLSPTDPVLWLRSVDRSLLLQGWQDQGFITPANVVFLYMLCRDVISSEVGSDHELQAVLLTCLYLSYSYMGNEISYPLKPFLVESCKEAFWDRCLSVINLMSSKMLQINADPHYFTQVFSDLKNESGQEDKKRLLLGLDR
Nature of the experiment: Carna IC50 determination. It counts as biochemical. The note with it: around Km [ATP]. The protocol: as §2

In the next experiment the target is T5, CDK4/cyclin D3 (Homo sapiens, UniProt P11802).
T5 construct: made in house
T5 sequence (P11802 whole entry): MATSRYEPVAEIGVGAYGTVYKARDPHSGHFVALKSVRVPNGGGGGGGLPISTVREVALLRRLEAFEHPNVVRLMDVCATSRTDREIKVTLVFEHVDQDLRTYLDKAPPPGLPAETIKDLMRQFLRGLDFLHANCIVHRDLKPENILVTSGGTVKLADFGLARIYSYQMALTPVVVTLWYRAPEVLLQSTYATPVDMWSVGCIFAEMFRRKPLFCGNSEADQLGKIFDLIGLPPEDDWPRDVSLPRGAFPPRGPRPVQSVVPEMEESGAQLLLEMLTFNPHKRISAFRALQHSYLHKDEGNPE
T5 sequence (P30281 whole entry partner): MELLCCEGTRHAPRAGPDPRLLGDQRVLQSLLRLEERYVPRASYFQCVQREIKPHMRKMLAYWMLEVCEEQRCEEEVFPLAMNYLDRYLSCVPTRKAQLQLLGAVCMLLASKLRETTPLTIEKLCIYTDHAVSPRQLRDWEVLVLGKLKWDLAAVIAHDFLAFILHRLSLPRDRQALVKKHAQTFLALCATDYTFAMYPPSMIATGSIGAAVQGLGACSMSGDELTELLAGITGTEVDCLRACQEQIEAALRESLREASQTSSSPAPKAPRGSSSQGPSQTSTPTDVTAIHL
Briefly: Carna IC50 determination. It is filed as biochemical. The note with it: around Km [ATP]. The protocol:
as §2

Another experiment addresses T6, CDK3/cyclin E1 (Homo sapiens, UniProt Q00526).
T6 construct: purchased Carna Biosciences
Briefly: Carna IC50 determination. It is filed as biochemical. The note with it: around Km [ATP]. The protocol:
as §2

Values joined by “and” are separate entries in the source; they are usually repeats but may differ in a detail not shown here. Equal entries are not always repeated. Where two headings read alike, the source gives them in different places.

T6 sequence (Q00526 whole entry): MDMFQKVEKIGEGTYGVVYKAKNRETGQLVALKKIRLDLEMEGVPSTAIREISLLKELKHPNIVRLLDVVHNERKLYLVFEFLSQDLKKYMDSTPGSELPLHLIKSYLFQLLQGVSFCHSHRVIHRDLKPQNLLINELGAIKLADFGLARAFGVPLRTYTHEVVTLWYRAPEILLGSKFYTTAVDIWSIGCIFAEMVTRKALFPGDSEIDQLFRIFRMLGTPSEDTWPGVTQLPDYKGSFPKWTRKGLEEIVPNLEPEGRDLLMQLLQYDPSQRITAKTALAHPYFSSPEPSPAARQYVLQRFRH
T6 sequence (P24864 whole entry partner): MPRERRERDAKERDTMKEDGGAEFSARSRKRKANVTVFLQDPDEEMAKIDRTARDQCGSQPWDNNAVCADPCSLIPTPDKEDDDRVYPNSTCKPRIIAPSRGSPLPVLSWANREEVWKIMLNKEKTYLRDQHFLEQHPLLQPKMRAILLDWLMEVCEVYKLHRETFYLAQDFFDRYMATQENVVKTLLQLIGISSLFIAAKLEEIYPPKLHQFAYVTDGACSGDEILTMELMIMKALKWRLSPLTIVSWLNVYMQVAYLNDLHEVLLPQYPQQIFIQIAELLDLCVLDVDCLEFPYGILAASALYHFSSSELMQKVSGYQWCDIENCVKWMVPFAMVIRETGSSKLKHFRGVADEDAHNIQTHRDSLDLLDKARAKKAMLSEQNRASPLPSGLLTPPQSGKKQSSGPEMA
T3 sequence (P49759 whole entry): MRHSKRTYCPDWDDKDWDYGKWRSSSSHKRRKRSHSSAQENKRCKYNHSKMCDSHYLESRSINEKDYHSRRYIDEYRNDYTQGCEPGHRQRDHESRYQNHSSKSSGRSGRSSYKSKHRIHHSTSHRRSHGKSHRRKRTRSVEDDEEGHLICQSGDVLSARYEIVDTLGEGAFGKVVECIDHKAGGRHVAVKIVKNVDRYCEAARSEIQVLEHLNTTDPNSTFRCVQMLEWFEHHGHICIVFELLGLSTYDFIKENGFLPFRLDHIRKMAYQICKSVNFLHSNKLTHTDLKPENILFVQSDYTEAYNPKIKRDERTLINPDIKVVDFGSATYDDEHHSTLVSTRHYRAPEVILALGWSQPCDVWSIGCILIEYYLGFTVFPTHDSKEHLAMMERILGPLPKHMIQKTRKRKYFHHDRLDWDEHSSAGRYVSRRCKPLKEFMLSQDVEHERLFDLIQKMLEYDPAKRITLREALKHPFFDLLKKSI

By IC90 is commonly meant the concentration needed for an effect of 90%. A low value points to an effect from little substance. For orientation: IC50 means the concentration that gives 50% inhibition. On to `CC[C@H](Nc1nc(NCc2cnc(C)cc2C)c2ncn(C(C)C)c2n1)[C@@H](C)O` [Fadraciclib, 2-pentanol, 3-[[6-[[(4,6-dimethyl-3-pyridinyl)methyl]amino]-9-(1-methylethyl)-9Hpurin-2-yl]amino]-, (2R,3S)], for which the IC90 stood at 1600 nM with HL60 (HL-60, 6 h pulse then 66 h release) and 560 nM with EOL-1 (EOL1, 6 h pulse then 66 h release). Moreover, the IC50 is 440 ± 70 nM in the experiment on HL60 (HL-60, 72 h continuous, read-out: 72 h continuous IC50 ± SD); 790 ± 140 nM in the experiment with HL60 (HL-60, read-out: 6 h pulse IC50 ± SD, 6 h pulse then 66 h release); 370 ± 50 nM in the experiment with EOL-1 (EOL1, 72 h continuous, read-out: 72 h continuous IC50 ± SD); 350 ± 50 nM with EOL-1 (EOL1, read-out: 6 h pulse IC50 ± SD, 6 h pulse then 66 h release); ≤ 400 nM in experiment [1]; 252 ± 8 nM against CLK2. In addition, the half-maximal inhibitory concentration (IC50) against CDK2/cyclin A is 4.5 ± 0.4 nM; on CLK1 it was 549 ± 81 nM; on CDK5/p25 it was 20.5 ± 1 nM; on CDK4/cyclin D3, 232 ± 27 nM; at CDK3/cyclin E1, 29 nM and 28.9 nM.
